Data on two molecules can be found in US10729706B2, “Psilocybin and/or psilocin in combination with cannabinoids and/or terpenes” (Procare Beheer B.V., priority 2017, dated 2020).

Each structure is given as a SMILES string.

One series has as its system subjects with Depression. The experiment in a line: 48-day daily oral treatment, subjects diagnosed with depression. It counts as in vivo. Conditions: 14 subjects with depression, 48-day treatment, 30 mg of each active. The procedure: (§1) In a 48-day treatment, 50 subjects suffering from diverse medical conditions receive a daily oral dose with either • pure psilocybin (30 mg); • pure cannabidiol (30 mg); or • combined treatment of pure psilocybin (30 mg)+pure cannabidiol (30 mg).

The subject of series [1] is subjects with Psychotic disorder. In words: 48-day daily oral treatment, subjects diagnosed with psychotic disorder. The format is in vivo. As to conditions: 3 subjects with psychotic disorder; 48-day treatment, daily oral dose 30 mg; increase. The procedure:
as §1

Series [2] relates to subjects with Schizophrenia. In words: 48-day daily oral treatment, subjects diagnosed with schizophrenia. As to conditions: 2 subjects with schizophrenia, 48-day treatment, 30 mg of each active, decrease. The format is in vivo. As to the method: as §1
For series [3], the system named is subjects with Anxiety disorder. In words: 48-day daily oral treatment, subjects diagnosed with anxiety disorder. The format is in vivo. Conditions: 4 subjects with anxiety disorder; 48-day treatment, daily oral dose 30 mg; increase. The procedure: as §1
The test system of series [4] is subjects with Panic disorder. The experiment in a line: 48-day daily oral treatment, subjects diagnosed with panic disorder. As to conditions: 2 subjects with panic disorder; 48-day treatment, daily oral dose 30 mg; increase. The format is in vivo. The procedure: as §1
Series [5] has as its system subjects with Huntington's disease. In words: 48-day daily oral treatment, subject diagnosed with Huntington's disease. As to conditions: 1 subject with Huntington's disease, 48-day treatment, 30 mg of each active. It counts as in vivo. As to the method:
as §1

Series [6] concerns subjects with Alzheimer's disease. In words: 48-day daily oral treatment, subjects diagnosed with Alzheimer's disease. The format is in vivo. Conditions: 10 subjects with Alzheimer's disease, 48-day treatment, 30 mg of each active. As to the method:
as §1

The test system of a further series is subjects with Dementia. The experiment in a line: 48-day daily oral treatment, subjects diagnosed with dementia. The format is in vivo. As to conditions: 10 subjects with dementia, 48-day treatment, 30 mg of each active. As to the method:
as §1

Series [7] deals with subjects with Parkinson's disease. The experiment in a line: 48-day daily oral treatment, subjects diagnosed with Parkinson's disease. It counts as in vivo. As to conditions: 4 subjects with Parkinson's disease, 48-day treatment, 30 mg of each active. The procedure: as §1
The conditions of series [8]: general statement in description; cited from earlier work.

Regarding `C=C(C)[C@@H]1CCC(C)=C[C@H]1c1c(O)cc(CCCCC)cc1O` [cannabidiol], in the series on subjects with Depression, the “subjects report improved mood after period of treatment” value was 5 subjects report. Also, in series [1], the “increased occurrence of psychotic episodes during period of treatment, on average” value is given as “on average, 10%”. Moreover, in [2], the “decreased occurrence of schizophrenic episodes during period of treatment, on average” value was “on average, 50%”. Besides, the “increased occurrence of anxiety attacks during period of treatment, on average” value in series [3] is recorded as “on average, 40%”. For the same molecule, the “Increased occurrence of panic attacks during period of treatment, on average” value in [4] is “on average, 40%”. Further, the “progression of movement, cognitive, and psychiatric disorders during treatment” value in [5] is on record as “normal progression”. In addition, the “progression of disease symptoms during treatment” value (in series [6]; in the series on subjects with Dementia) was “normal progression” in each case. Besides, the “progression of movement disorders during treatment” value in [7] is “normal progression”.

Regarding `CN(C)CCc1c[nH]c2cccc(OP(=O)(O)O)c12` [psilocybin, [3-(2-dimethylaminoethyl)-1H-indol-4-yl] dihydrogen phosphate], in the series with subjects with Depression, the “subjects report improved mood after period of treatment” value was found to be 6 subjects report. In addition, in series [1], the “increased occurrence of psychotic episodes during period of treatment, on average” value is on record as “on average, 20%”. Further, in series [2], the “decreased occurrence of schizophrenic episodes during period of treatment, on average” value is reported as “on average, 0%”. Further, the “increased occurrence of anxiety attacks during period of treatment, on average” value in series [3] is given as “on average, 50%”. Moreover, the “Increased occurrence of panic attacks during period of treatment, on average” value in [4] is “on average, 50%”. Also, the toxicity result in series [8] is reported as “low toxicity”.
